≈ marks a conversion by molar mass, not a printed value. Read-outs that look alike come from different tables or passages of the source.
Assays:
[1] = system: Staphylococcus aureus (methicillin resistant, MB5393, COL); assay: microbe, parasite or virus in culture; assay type: cell-based; conditions: MRSA, 22 h, read-out: MRSA COL MITC95 μM
Method: Inhibition of Staphylococcus aureus (methicillin resistant, MB5393, COL) growth was assessed in cation adjusted Mueller Hinton II broth (CAMHB) in 384-well microtiter plates. Bacteria were dispensed into microtiter plates at approximately 5×10^5 actively growing cells in 49 μL volumes per well. Cells were exposed to 2-fold serial dilutions of compounds from 200 μM to 0.195 μM and growth compared to drug-free control. Compound dilutions were prepared in 100% dimethylsulfoxide and added to microtiter plates in 1 μL volumes per well. Full growth control wells contained dimethylsufoxide and bacteria. No growth control wells contained dimethysulfoxide and CAMHB but no bacteria. Growth inhibition was assessed after a 22-hour growth period by measuring optical density using a spectrophotometer. The lowest concentration of test compound required to inhibit 95% of the growth of the bacteria was defined as the MITC95. All studies were done in a BSL2 facility.

[2] = system: mitochondrial protein synthesis in HepG2 cells (COX-I / SDH-A); assay: Mitochondrial protein synthesis assay; assay type: cell-based; conditions: Homo sapiens, 96 h; HepG2 cells, 4 days, ratio of COX-1 to SDH-A levels; read-out: MPS IC50_μM
Method: (§1) Inhibition of mitochondrial protein synthesis was assessed in HepG2 cells by comparing the levels of two subunits of oxidative phosphorylation enzyme complexes, subunit I of Complex IV (COX-I) and the 70 kDa subunit of Complex II (SDH-A). COX-I is mitochondrial DNA encoded and SDH-A is nuclear DNA encoded. HepG2 cells were seeded in 96-well collagen coated plates at 8,000 cells per well and exposed to 2-fold serial dilutions of compounds from 100 LM to 6.25 μM. Microtiter plates were incubated for approximately 5 replication cycles (4 days) prior to assessment of protein levels using a kit as described by the manufacturer (ab 110217 MitoBiogenesis In Cell ELISA Kit, Abcam, Cambridge, Mass.). Inhibition of mitochondrial protein synthesis was expressed as a ratio of COX-1 to SDH-A levels.
as §1, with “μM” for “LM”

[3] = system: Mycobacterium tuberculosis (Mtb); assay: microbe, parasite or virus in culture; assay type: cell-based, Mycobacterium tuberculosis H37Rv (Mtb-GFP); conditions: 168 h
[4] = pH 6.8, read-out: Mtb Cho MITC95_μM
[5] = pH 6.8, read-out: Mtb Glu MITC95_μM

Compound	MIC [1] [µM]	IC50 [2] [µM]	MIC [3, 4] [µM]	MIC [3, 5] [µM]
NC[C@H]1CN(c2ccc(-c3cnn4ncccc34)c(F)c2)C(=O)O1 [Example 38, (5S)-5-(aminomethyl)-3-(3-fluoro-4-pyrazolo[1,5-b]pyridazin-3-ylphenyl)-1,3-oxazolidin-2-one]	200 (≈ 65.5 µg/mL)	> 20	0.39 (≈ 0.128 µg/mL)	0.14 (≈ 0.0458 µg/mL)
CSc1ncc(-c2ccc(N3C[C@H](CN)OC3=O)cc2F)cn1 [Example 32, (5S)-5-(aminomethyl)-3-{3-fluoro-4-[2-(methylsulfanyl)pyrimidin-5-yl]phenyl}-1,3-oxazolidin-2-one]	200 (≈ 66.9 µg/mL)	> 20	0.29 (≈ 0.097 µg/mL)	0.24 (≈ 0.0803 µg/mL)
CSc1cccc(-c2ccc(N3C[C@H](CN)OC3=O)cc2F)c1 [Example 3, (5S)-5-(aminomethyl)-3-[2-fluoro-3′-(methylsulfanyl)biphenyl-4-yl]-1,3-oxazolidin-2-one]	100 (≈ 33.2 µg/mL)	> 20	0.78 (≈ 0.259 µg/mL)	1.14 (≈ 0.379 µg/mL)
NC[C@H]1CN(c2ccc(-c3cccc(N4CCS(=O)(=O)CC4)c3)c(F)c2)C(=O)O1 [Example 21, (5S)-5-(aminomethyl)-3-[3′-(1,1-dioxidothiomorpholin-4-yl)-2-fluorobiphenyl-4-yl]-1,3-oxazolidin-2-one]	200 (≈ 83.9 µg/mL)	25	1.5 (≈ 0.629 µg/mL)	0.39 (≈ 0.164 µg/mL)
N#Cc1ccc(-c2ccc(N3C[C@H](CN)OC3=O)cc2F)cc1 [Example 18, 4′-[(5S)-5-(aminomethyl)-2-oxo-1,3-oxazolidin-3-yl]-2′-fluorobiphenyl-4-carbonitrile]	50 (≈ 15.6 µg/mL)	> 20	0.09 (≈ 0.028 µg/mL)	0.04 (≈ 0.0125 µg/mL)
NC[C@H]1CN(c2cc(F)c(N3CCOCC3)c(F)c2)C(=O)O1 [Example 59, (S)-5-(aminomethyl)-3-(3,5-difluoro-4-morpholinophenyl)oxazolidin-2-one]	200 (≈ 62.7 µg/mL)	> 20	0.39 (≈ 0.122 µg/mL)	0.09 (≈ 0.0282 µg/mL)
NC[C@H]1CN(c2ccc(-c3ccc(C4CC4)nc3)c(F)c2)C(=O)O1 [Example 33, (5S)-5-(aminomethyl)-3-[4-(6-cyclopropylpyridin-3-yl)-3-fluorophenyl]-1,3-oxazolidin-2-one]	200 (≈ 65.5 µg/mL)	> 20	0.19 (≈ 0.0622 µg/mL)	0.845 (≈ 0.277 µg/mL)
CCOC(=O)NC[C@H]1CN(c2ccc(-c3ccc(SC)cc3)c(F)c2)C(=O)O1 [Example 63, ethyl ({(5S)-3-[2-fluoro-4′-(methylsulfanyl)biphenyl-4-yl]-2-oxo-1,3-oxazolidin-5-yl}methyl)carbamate]	200 (≈ 80.9 µg/mL)	18	0.19 (≈ 0.0768 µg/mL)	0.29 (≈ 0.117 µg/mL)
CC(C)(O)c1ncc(-c2ccc(N3C[C@H](CN)OC3=O)cc2F)s1 [Example 23, (5S)-5-(aminomethyl)-3-{3-fluoro-4-[2-(1-hydroxy-1-methylethyl)-1,3-thiazol-5-yl]phenyl}-1,3-oxazolidin-2-one]	200 (≈ 70.3 µg/mL)	> 20	0.19 (≈ 0.0668 µg/mL)	0.19 (≈ 0.0668 µg/mL)
CC(C)(C)OC(=O)N1CC=C(c2ccc(N3C[C@H](CN)OC3=O)cc2F)CC1 [Example 26, tert-butyl 4-{4-[(5S)-5-(aminomethyl)-2-oxo-1,3-oxazolidin-3-yl]-2-fluorophenyl}-3,6-dihydropyridin-1(2H)-carboxylate]	200 (≈ 78.3 µg/mL)	> 20	1.5 (≈ 0.587 µg/mL)	0.78 (≈ 0.305 µg/mL)
NC[C@H]1CN(c2ccc(-c3cccnc3)c(F)c2)C(=O)O1 [Example 24, (5S)-5-(aminomethyl)-3-(3-fluoro-4-pyridin-3-ylphenyl)-1,3-oxazolidin-2-one]	200 (≈ 57.5 µg/mL)	> 20	0.09 (≈ 0.0259 µg/mL)	0.04 (≈ 0.0115 µg/mL)
CSc1ccc(-c2ccc(N3C[C@H](Cn4occc4=O)OC3=O)cc2F)cc1 [Example 50, (R)-2-((3-(2-fluoro-4′-(methylthio)-[1,1′-biphenyl]-4-yl)-2-oxooxazolidin-5-yl)methyl)isoxazol-3(2H)-one]	200 (≈ 80.1 µg/mL)	> 20	0.58 (≈ 0.232 µg/mL)	0.29 (≈ 0.116 µg/mL)
O=C1O[C@@H](Cn2ccnn2)CN1c1ccc(-c2ccc(N3CCNCC3)nc2)c(F)c1 [Example 54, (R)-5-((1H-1,2,3-triazol-1-yl)methyl)-3-(3-fluoro-4-(6-(piperazin-1-yl)pyridin-3-yl)phenyl)oxazolidin-2-one]	2.34 (≈ 0.991 µg/mL)	> 20	0.215 (≈ 0.091 µg/mL)	0.24 (≈ 0.102 µg/mL)
NCc1ccc(F)c(-c2ccc(N3C[C@H](Cn4ccnn4)OC3=O)cc2F)c1 [Example 55, (5R)-3-[5′-(aminomethyl)-2,2′-difluorobiphenyl-4-yl]-5-(1H-1,2,3-triazol-1-ylmethyl)-1,3-oxazolidin-2-one]	50 (≈ 19.3 µg/mL)	> 20	0.19 (≈ 0.0732 µg/mL)	0.19 (≈ 0.0732 µg/mL)
NC[C@H]1CN(c2ccc(-c3ccc(F)nc3)c(F)c2)C(=O)O1 [Example 19, (5S)-5-(aminomethyl)-3-[3-fluoro-4-(6-fluoropyridin-3-yl)phenyl]-1,3-oxazolidin-2-one]	200 (≈ 61.1 µg/mL)	> 20	0.09 (≈ 0.0275 µg/mL)	0.485 (≈ 0.148 µg/mL)
CS(=O)(=O)c1ccc(-c2ccc(N3C[C@H](CN)OC3=O)cc2F)cc1 [Example 4, (5S)-5-(aminomethyl)-3-[2-fluoro-4′-(methylsulfonyl)biphenyl-4-yl]-1,3-oxazolidin-2-one]	200 (≈ 72.9 µg/mL)	22	0.09 (≈ 0.0328 µg/mL)	0.04 (≈ 0.0146 µg/mL)

Source: US10947205B2, “Oxazolidinone compounds and methods of use thereof as antibacterial agents” (priority 2015, dated 2021)
